The values below come from ChEMBL document CHEMBL5108020, “Design and synthesis of novel benzimidazole derivatives as potential Pseudomonas aeruginosa anti-biofilm agents inhibiting LasR: Evidence from comprehensive molecular dynamics simulation and in vitro investigation” (Eur J Med Chem, 2022).

Each structure is given as a SMILES string. pIC50: −log10 of the molar value. In brackets after ≈: the same amount, converted by molar mass. Activity calls are given as the source filed them. The calls are words filed in the database; no cut-off is given here.

Data set [1] concerns Pseudomonas aeruginosa. Description: Antibacterial activity against Pseudomonas aeruginosa ATCC 27853 assessed as zone of growth inhibition incubated for 24 hrs by agar diffusion method. It counts as functional. On the technique in general: Agar diffusion results depend on both activity and mobility in agar.
The test system of another data set is Staphylococcus aureus. Briefly: Antibacterial activity against Staphylococcus aureus ATCC 43300 assessed as inhibition of bacterial growth incubated for 24 hrs by agar diffusion method. It counts as functional, organism-based.
Data set [2] concerns Pseudomonas aeruginosa. Description: Antibacterial activity against Pseudomonas aeruginosa assessed as inhibition of bacterial growth incubated for 24 hrs by CLSI broth microdilution method. It is filed as functional. The conditions noted are these: for MIC: Pseudomonas aeruginosa. (Broth dilution looks for growth in wells or tubes with falling amounts of substance.)
The nature of data set [3]: Inhibition of quorum sensing system in Pseudomonas aeruginosa assessed as inhibition of biofilm production at sub-MIC incubated for 24 hrs by crystal violet staining based analysis.
Data set [4] in a line: Inhibition of quorum sensing system in Pseudomonas aeruginosa assessed as inhibition of pyocyanin production at sub-MIC by absorbance based analysis.
Data set [5] in a line: Inhibition of quorum sensing system in Pseudomonas aeruginosa assessed as inhibition of rhamnolipid production at sub-MIC by spectrophotometric method.
A short description of data set [6]: Inhibition of quorum sensing system in Pseudomonas aeruginosa assessed as downregulation of lasR gene expression at sub-MIC by fluorescence real time PCR analysis. (Quantitative PCR measures a nucleic acid by following its amplification.)
The nature of data set [7]: Inhibition of quorum sensing system in Pseudomonas aeruginosa assessed as downregulation of rhlR gene expression at sub-MIC by fluorescence real time PCR analysis.
In a further data set the test system is Bacillus subtilis. Briefly: Antibacterial activity against Bacillus subtilis ATCC 6633 assessed as inhibition of bacterial growth incubated for 24 hrs by agar diffusion method. It is filed as functional, organism-based.
A short description of data set [8]: Cytotoxicity against human HDFa cells assessed as reduction in cell viability incubated for 24 hrs by MTT assay. It is filed as toxicity, cell-based.
Data set [9] in a line: Selectivity index, ratio of IC50 for human HDFa cells to MIC for antibacterial activity against Pseudomonas aeruginosa. The conditions noted are these: read-out: Selectivity Index. It is filed as toxicity.
The target in data set [10] is T1, Transcriptional activator protein LasR (Pseudomonas aeruginosa (strain ATCC 15692 / PAO1 / 1C / PRS 101 / LMG12228)) (UniProt P25084).
T1 sequence (whole entry): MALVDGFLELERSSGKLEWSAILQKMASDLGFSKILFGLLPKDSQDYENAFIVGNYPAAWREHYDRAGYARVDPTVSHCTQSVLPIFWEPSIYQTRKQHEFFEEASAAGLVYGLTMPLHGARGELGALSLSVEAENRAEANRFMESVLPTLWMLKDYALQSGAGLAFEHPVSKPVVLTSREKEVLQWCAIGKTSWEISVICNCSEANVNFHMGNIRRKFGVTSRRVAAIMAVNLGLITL
Briefly: Inhibition of Pseudomonas aeruginosa MH602 LasR co-transfected with ASVgfp reporter assessed as inhibition of GFP production at 250 uM by fluorescence based analysis.

The target in data set [11] is T1, Transcriptional activator protein LasR (Pseudomonas aeruginosa (strain ATCC 15692 / PAO1 / 1C / PRS 101 / LMG12228)). Description: Inhibition of Pseudomonas aeruginosa MH602 LasR co-transfected with ASVgfp reporter assessed as inhibition of GFP production at 125 uM by fluorescence based analysis.
The target is the same in data set [12]. Description: Inhibition of Pseudomonas aeruginosa MH602 LasR co-transfected with ASVgfp reporter assessed as inhibition of GFP production at 62.5 uM by fluorescence based analysis.
The subject of a further data set is Escherichia coli. Briefly: Antibacterial activity against Escherichia coli ATCC 25922 assessed as inhibition of bacterial growth incubated for 24 hrs by agar diffusion method. It counts as functional, organism-based.
For a further data set, the system named is Klebsiella pneumoniae. Description: Antibacterial activity against Klebsiella pneumoniae ATCC 700603 assessed as inhibition of bacterial growth incubated for 24 hrs by agar diffusion method. It is filed as functional, organism-based.
The test system of a further data set is Candida albicans. Briefly: Antifungal activity against Candida albicans ATCC 60193 assessed as inhibition of fungal growth incubated for 48 hrs by agar diffusion method. It is filed as functional, organism-based.
In data set [13] the target is T2, Transcriptional activator protein LasR (Pseudomonas aeruginosa (strain ATCC 15692 / PAO1 / 1C / PRS 101 / LMG12228), UniProt P25084).
T2 sequence (P25084 whole entry): T1 sequence (whole entry)
Description: Inhibition of Pseudomonas aeruginosa PAO-JP2 LasR co-transfected with LVAgfp reporter assessed as inhibition of GFP production by fluorescence based analysis.

The target of data set [14] is T2, Transcriptional activator protein LasR. Briefly: Inhibition of Pseudomonas aeruginosa PAO-JG21 LasR co-transfected with LVAgfp reporter assessed as inhibition of GFP production by fluorescence based analysis.
For data set [15] the target is unchanged. Briefly: Inhibition of Pseudomonas aeruginosa PAO1 LasR.
In data set [16] the target is T3, HTH-type quorum-sensing regulator RhlR (Pseudomonas aeruginosa (strain ATCC 15692 / PAO1 / 1C / PRS 101 / LMG12228), UniProt P54292).
T3 sequence (P54292 whole entry): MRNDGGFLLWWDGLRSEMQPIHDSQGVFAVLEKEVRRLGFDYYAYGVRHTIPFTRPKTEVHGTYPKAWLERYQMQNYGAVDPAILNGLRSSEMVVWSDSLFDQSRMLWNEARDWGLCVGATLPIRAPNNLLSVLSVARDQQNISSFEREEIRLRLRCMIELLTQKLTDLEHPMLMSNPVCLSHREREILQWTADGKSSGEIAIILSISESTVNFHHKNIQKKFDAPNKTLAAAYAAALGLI
Briefly: Inhibition of Pseudomonas aeruginosa PAO1 RhlR.

For data set [17], the target named is T2, Transcriptional activator protein LasR. Briefly: Inhibition of Pseudomonas aeruginosa PAO1 LasR co-transfected with LVAgfp reporter assessed as inhibition of GFP production measured after 12 to 24 hrs by fluorescence based analysis.
Data set [18] addresses T3, HTH-type quorum-sensing regulator RhlR. Description: Inhibition of Pseudomonas aeruginosa PAO1 RhlR co-transfected with LVAgfp reporter assessed as inhibition of GFP production measured after 12 to 24 hrs by fluorescence based analysis.

Broadly, the MIC is the lowest concentration found to suppress growth. By inhibition is commonly meant the drop in the measured response relative to a control, in per cent. Consider `COc1ccc(NC(=O)COc2ccc(-c3nc4ccccc4[nH]3)cc2)cc1`, for which the “inhibition zone (IZ)” value with Pseudomonas aeruginosa [1] was found to be 18 mm. Besides, the result in the data set on Staphylococcus aureus was Active. Further, the SubMIC in the data set on Pseudomonas aeruginosa [2] amounted to 37.4 µM. Besides, in the data set with Pseudomonas aeruginosa [2], the MIC came to 151 µM (≈ 56.2 µg/mL). The inhibition in data set [3] is 67.1%; in data set [4], 61.8%; in data set [5], 46.4%.

Consider `CC[C@H]1OC(=O)[C@H](C)[C@@H](O[C@H]2C[C@@](C)(OC)[C@@H](O)[C@H](C)O2)[C@H](C)[C@@H](O[C@@H]2O[C@H](C)C[C@H](N(C)C)[C@H]2O)[C@](C)(O)C[C@@H](C)CN(C)[C@H](C)[C@@H](O)[C@]1(C)O` [AZITHROMYCIN], for which the SubMIC with Pseudomonas aeruginosa [2] is 20.1 µM. Further, the MIC in the data set on Pseudomonas aeruginosa [2] amounted to 85.4 µM (≈ 64 µg/mL). Also, the inhibition was 52.5% in [3]; 65% in [4]; 55.2% in data set [5]; 40.8% in data set [6]; 41.5% in data set [7].

Broadly, the IC50 is the concentration that gives 50% inhibition. On to `Cc1ccccc1NC(=O)COc1ccc(-c2nc3ccccc3[nH]2)cc1`, for which the “inhibition zone (IZ)” value in the data set with Pseudomonas aeruginosa [1] amounted to 16 mm. Further, the result in the data set on Bacillus subtilis was Active. Besides, the SubMIC in the data set with Pseudomonas aeruginosa [2] came to 39.1 µM. Further, the MIC in the data set with Pseudomonas aeruginosa [2] worked out at 157 µM (≈ 56.2 µg/mL). The inhibition is 68.9% in [3]; 68% in data set [4]; 51.8% in data set [5]; 26% in data set [6]; 16.3% in data set [7]. Further, in data set [8], the IC50 at 24 h was 338 µg/mL (≈ 946 µM). Besides, in [9], the selectivity ratio was 6.01.

On to `Cc1ccc2[nH]c(-c3ccc(OCC(=O)Nc4ccccc4[N+](=O)[O-])cc3)nc2c1`, for which, in the data set on Pseudomonas aeruginosa [1], the “inhibition zone (IZ)” value was found to be 14 mm. The result in the data set with Bacillus subtilis was Active. In addition, the SubMIC in the data set with Pseudomonas aeruginosa [2] came out at 17.4 µM. Also, the minimum inhibitory concentration (MIC) with Pseudomonas aeruginosa [2] is 69.9 µM (≈ 28.1 µg/mL). The inhibition is 64.9% in data set [3], 60% in data set [4] and 42.3% in data set [5]. Besides, the 50% inhibitory concentration (IC50) at 24 h in data set [8] is 411 µg/mL (≈ 1020 µM). For the same compound, the selectivity ratio in data set [9] stood at 14.6.

As for `O=C(Cn1cc(-c2ccc([N+](=O)[O-])cc2)nn1)Nc1nc2ccccc2[nH]1`, the inhibition in data set [10] was 68.2%; in data set [11], 67.1%; in data set [12] it was 63.7%.

As for `CN1CCN(c2ccc(-c3nc4ccccc4[nH]3)cc2)CC1`, the outcome in the data set on Escherichia coli, in the data set on Klebsiella pneumoniae, in the data set with Staphylococcus aureus and in the data set on Candida albicans was Active. For the same compound, the “inhibition zone (IZ)” value with Pseudomonas aeruginosa [1] was 20 mm. Also, the SubMIC in the data set on Pseudomonas aeruginosa [2] amounted to 48 µM. Further, the minimal inhibitory concentration (MIC) in the data set on Pseudomonas aeruginosa [2] was 193 µM (≈ 56.4 µg/mL). The inhibition in data set [3] was 71.7%; in [4] it was 68.7%; in [5], 54%; in data set [6], 61.7%. Further, in [8], the IC50 at 24 h stood at 217 µg/mL (≈ 742 µM). The selectivity ratio in data set [9] is 3.86.

One may read the pIC50 as the IC50 on a negative log10 scale, so that one unit is a factor of ten. Consider `Nc1nc2ccccc2[nH]1`, for which the negative-log IC50 (pIC50) is 5.64 in data set [13], 5.85 in [14], 3.40 in data set [15] and 3.55 in [16].

For the compound `Cc1cc2nc(N)[nH]c2cc1C`, the results for the negative logarithm of the IC50 (pIC50) in data set [17] and in data set [18] were 4.43 and 4.90, respectively.

Take `c1ccc2[nH]c(-c3ccc(N4CCCCC4)cc3)nc2c1`: the “inhibition zone (IZ)” value in the data set with Pseudomonas aeruginosa [1] was 19 mm. In the data set on Staphylococcus aureus, the outcome was Active. In the data set with Pseudomonas aeruginosa [2], the SubMIC is 50.4 µM. Moreover, in the data set on Pseudomonas aeruginosa [2], the MIC was determined as 203 µM (≈ 56.3 µg/mL). For the same compound, the inhibition is 67.3% in data set [3], 63.6% in data set [4] and 49.6% in data set [5].
